Assay results published in patent publication US20050221987A1, “Use of certain phospholipids to deliver hormonal effects to plants” (priority 2004, published 2005).
“And” between values parts separate entries of the source, which are not always exact repeats. Identical values can stand only once.

Columns and labels:
radish cotyledons [1] = test: Radish cotyledon bioassay (kinetin-induced expansion growth and chlorophyll content); format: in vivo, Raphanus sativus L. cv. Cherry-Belle; settings: for Type of hormone-like activity: radish cotyledon bioassay
Method: Radish cotyledon bioassay. The radish cotyledon bioassay was essentially as described by Letham D S (1971) Physiologia Plantarum 25:391-396, which is herein incorporated by reference in its entirety. Seeds of Raphanus sativus L. cv. Cherry-Belle were germinated in darkness at 25° C. for 36 hours in Petri dishes containing filter paper wetted with distilled water. The smaller of the two cotyledons was excised, the fresh weight determined, and 10 cotyledons placed adaxial side down on filter paper in Petri dishes containing potassium phosphate buffer (2 mM, pH 6.0) with kinetin (0.2 mg/L, added to simulate natural growing conditions) and the compounds to be tested at 20 mg/L. Cotyledons were then incubated under continuous illumination up to 72 hours at 25° C. and the increase in fresh weight determined. Chlorophyll content was determined after extraction of tissue into 80% ethanol (containing butylated hydroxytoluene, 10 mg/L) and quantified spectrophotometrically using the equations Chl a=(13.95A663)−(6.88A647) and Chl b=(24.96A652)−(7.32A663) as described by Lichtenthal H K (1987) Methods in Enzymology 148:350-382, which is herein incorporated by reference in its entirety.

radish hypocotyls = test: Radish hypocotyl bioassay for anthocyanins; format: in vivo, Raphanus sativus L. cv. Cherry-Belle
Method: Radish hypocotyl bioassay for anthocyanins. An anthocyanin bioassay was developed using intact germinated seeds of radish (Raphanus sativus L. cv. Cherry-Belle). Seeds of radish were germinated in darkness at 25° C. for 40 hours in Petri dishes containing filter paper wetted with distilled water. Whole seedlings were transferred to Petri dishes containing the test solutions in potassium phosphate buffer (2 mM, pH 6.0 containing 0.2 mg/L kinetin to simulate natural growing conditions). The seedlings were incubated under bright light for 28 h prior to extraction of hypocotyl tissue and spectrophotometric quantification of anthocyanins. Anthocyanin content was determined spectrophotometrically after tissue extraction into 99 parts ethanol and 1 part concentrated HCl. The absorbance of the acidic ethanol fraction was measured at 510 nm and the final anthocyanin content calculated using an extinction coefficient of 31.76 mmol cm^−1 for raphanisuns (Ishikura N. and Hayashi K. Chromatographic separation and characterization of the component anthocyanins in radish root. Botanical Magazine Tokyo 76:6-13, 1963, which is herein incorporated by reference in its entirety).

[2] = test system: Hydroponic tomatoes (var. Trust); test: Color impact on tomato (greenhouse spray); format: in vivo
Method: The color impact of NALPE-2 on tomato. Hydroponic tomatoes (var. Trust) in a commercial greenhouse located in Arena, Wis. were treated with NALPE-2 (50 mg/L) using a hand pump spray bottle. Five tomato clusters each with 3-5 fruit in the early ripening stages (breaker) were used. The clusters were sprayed such that little overspray left the immediate area as to not contaminate other vines. Ambient conditions in the greenhouse at the time of application were about 75° F. and 70% relative humidity, full sun. Drying time was approximately 0.5 hr. Fruit were harvested after 7 days and transported to the laboratory for visual color comparison.

Bolivian Rainbow Peppers = test: Color impact on hot pepper (greenhouse); format: in vivo
Method: The color impact of NALPE-2 on hot pepper. Potted ornamental peppers (var. Bolivian Rainbow Peppers) in laboratory greenhouses located in Middleton, Wis. were treated with NALPE-2 (50 mg/L). […] 40-50 fruits were tagged and labeled. The pepper color stage was noted prior to application and two plants were used. Ambient conditions in the greenhouse at the time of application were about 80° F. and 70% relative humidity. Drying time was approximately 0.5 hr. After 14 days the peppers were harvested and color group sorting was performed.

radish cotyledons [3] = test: Radish cotyledon bioassay (kinetin-induced expansion growth and chlorophyll content); format: in vivo, Raphanus sativus L. cv. Cherry-Belle; settings: kinetin 0.2 mg/l, 72 hours; for Change in fresh weight: n = 9
[4] = NAPE-2 20 mg/L, kinetin 0.2 mg/l, 72 hours
[5] = NALPE-2 50 mg/L applied 7 days prior to harvest, tomatoes
[6] = NALPE-2 50 mg/L applied 14 days prior to harvest, Bolivian Rainbow Peppers

Substance: N-acetylphosphatidylethanolamine [NAPE-2]
- Effect on total amount of chlorophyll during radish cotyledon expansion (radish cotyledons [1]): did not change the total amount of chlorophyll
- Change in fresh weight (radish cotyledons [1]; NAPE-2 20 mg/L, kinetin 0.2 mg/l, 2 mM PB pH 6.0, 25° C., 72 hours, n = 3): 18.90 ± 1.74 mg and 21.37 ± 1.09 mg and 22.52 ± 3.42 mg
- Change in fresh weight, % of control (radish cotyledons [1]; [4]): 110 % of control and 108 % of control
- Chlorophyll a/b (radish cotyledons [1]; [4]): 1.82
- Type of hormone-like activity (radish cotyledons [1]): cytokinin-like activity
- Increase of cotyledon fresh weight (radish cotyledons [1]; summary of Table 1): about 10%

Substance: N-acetyl lysophosphatidylethanolamine [NALPE-2]
- Change in fresh weight, % of control (radish cotyledons [1]; NALPE-2 20 mg/l, kinetin 0.2 mg/l, 72 hours): 66 % of control
- Change in fresh weight (radish cotyledons [1]; NALPE-2 20 mg/l, kinetin 0.2 mg/l, 72 hours, n = 9): 9.88 ± 4.93 mg
- Effect on expansion growth of radish cotyledons (radish cotyledons [1]; Table 2, dependent upon concentration): inhibitory activity
- Type of hormone-like activity (radish cotyledons [1]): ethylene-like activity
- Anthocyanin (radish hypocotyls; NALPE-2 15 mg/l, kinetin 0.2 mg/l, 25° C., 28 hours, n = 4): 2.637 ± 0.005 μg/hypocotyl
- Anthocyanin, % of control (radish hypocotyls; NALPE-2 15 mg/l, kinetin 0.2 mg/l, 28 hours): 125 % of control
- Effect on anthocyanin pigment in radish hypocotyls (radish hypocotyls; summary of Table 3): enhanced the amount of anthocyanin pigment
- Color Stage Light Red [2, 5]: 17%
- Color Stage Others (breaker, turning, and pink stage) [2, 5]: 16%
- Color Stage Red [2, 5]: 67%
- Effect on color development in tomatoes ([2]; text summary of Table 4): accelerated color development
- Color Stage Blue (Bolivian Rainbow Peppers; [6]): 22%
- Color Stage Orange (Bolivian Rainbow Peppers; [6]): 20%
- Color Stage Purple (Bolivian Rainbow Peppers; [6]): 19%
- Color Stage Red (Bolivian Rainbow Peppers; [6]): 32%
- Color Stage Yellow (Bolivian Rainbow Peppers; [6]): 6%
- Effect on color development in hot peppers (Bolivian Rainbow Peppers; Table 5): accelerated color development
- Change in fresh weight, % of control (radish cotyledons [3]; NALPE-2 0.2 mg/l): 92 % of control
- Change in fresh weight (radish cotyledons [3]; NALPE-2 0.2 mg/l): 13.68 ± 4.79 mg
- Change in fresh weight, % of control (radish cotyledons [3]; NALPE-2 200 mg/l): 58 % of control
- Change in fresh weight (radish cotyledons [3]; NALPE-2 200 mg/l): 8.64 ± 5.46 mg
